Assay results published in US7507421B2, “Hydroxycitric acid salt composition and method of making” (Unibar Corporation, priority 2002, dated 2009).

How the values were obtained:
[1] = Solubility in water; type: physicochemical; settings: deionized water at room temperature
Method: The resultant solution was spray dried to yield a salt of hydroxycitric acid with the following analysis: potassium content 11% to 18%, calcium content 5% to 12%, structural moisture 3% to 5% and hydroxycitric acid content 70% to 76%. The sodium content was less than 0.5% and lactone less than 0.5%. […] This salt composition is tasteless and white in color. A solution of 5 g in 100 ml of de-ionized sterile water was subjected to an accelerated storage study chamber for 2 months.

[2] = Accelerated storage study of aqueous solution; type: physicochemical; settings: 5 g in 100 ml de-ionized sterile water, accelerated storage study chamber, 2 months
Method: 50 g equivalent of the hydroxy citric acid—potassium salt solution from Example 2 was taken into a glass beaker fitted with a stirring arrangement. To this solution, 43 g of the dried calcium salt from Example 1 was added and the mixture was stirred to yield a clear solution. The resultant solution was spray dried to yield a salt of hydroxycitric acid with the following analysis: potassium content 11% to 18%, calcium content 5% to 12%, structural moisture 3% to 5% and hydroxycitric acid content 70% to 76%. The sodium content was less than 0.5% and lactone less than 0.5%. The combined salt has a solubility of 5 g in 100 mL of deionized water at room temperature. This salt composition is tasteless and white in color. A solution of 5 g in 100 ml of de-ionized sterile water was subjected to an accelerated storage study chamber for 2 months.

[3] = tested on: adult female Wistar rats; assay: Acute Oral Toxicity (OECD Test Guideline 425), LD50; type: in vivo; parameters: key to Short-term Result / Long-term Result: X = Died; ◯ = Survived; settings: for LD50: oral, female Wistar rats
Method: A representative lot of powder obtained as described above is a pure, stable calcium potassium salt of hydroxycitric acid having a proximate analysis of 70 to 75% hydroxycitric acid, 7.5% to 9.5% calcium, 12 to 15% potassium and 3 to 5% structural moisture. The sodium content is less than 0.5%, and HCA lactone content is less than 0.5%. An animal toxicity study was conducted on the product to establish its LD50.
Doses were selected in accordance with the Acute Oral Toxicity (OECD Test Guideline 425) Statistical Program as follows: 175, 550, 1750, 5000 mg/kg of body weight in adult female Wistar rats.

[4] = tested on: adult female Wistar rats; assay: as above; type: in vivo; parameters: key: X = Died; ◯ = Survived; settings: dose 2000 mg/kg, single animal
[5] = dose 5000 mg/kg, one line per animal

Combined Potassium-Calcium Salts of Hydroxycitric Acid [Example 3]
solubility [1]: 5 g in 100 mL
clarity of solution after storage [2]: retained its clarity
precipitation of salt after storage of solution [2]: did not precipitate out
Died (long-term, number of animals) ([3]; All Doses, total 6): 0
Survived (long-term, number of animals) ([3]; All Doses, total 6): 6
Long-term Result ([3]; dose 175 mg/kg, single animal): ◯
Short-term Result ([3]; dose 175 mg/kg, single animal): ◯
Died (long-term, number of animals) ([3]; dose 175 mg/kg, total 1): 0
Survived (long-term, number of animals) ([3]; dose 175 mg/kg, total 1): 1
Long-term Result ([3]; dose 550 mg/kg, single animal): ◯
Short-term Result ([3]; dose 550 mg/kg, single animal): ◯
Died (long-term, number of animals) ([3]; dose 550 mg/kg, total 1): 0
Survived (long-term, number of animals) ([3]; dose 550 mg/kg, total 1): 1
Died (long-term, number of animals) ([3]; dose 2000 mg/kg, total 1): 0
Survived (long-term, number of animals) ([3]; dose 2000 mg/kg, total 1): 1
Long-term Result [3, 5]: ◯
Short-term Result [3, 5]: ◯
Died (long-term, number of animals) ([3]; dose 5000 mg/kg, total 3): 0
Survived (long-term, number of animals) ([3]; dose 5000 mg/kg, total 3): 3
LD50 [3]: more than 5 gm/kg
LD50 ([3]; conclusion of Table 8): Conclusion: LD50 of a sample of the Test Compound was found to be greater than 5000 mg/kg.
Long-term Result [4]: ◯
Short-term Result [4]: ◯
